Test results taken from ChEMBL document CHEMBL1123640, “Synthesis and antiviral activity of carbocyclic analogues of xylofuranosides of 2-amino-6-substituted-purines and 2-amino-6-substituted-8-azapurines” (1987).
In brackets after ≈: the same amount, converted by molar mass.

Columns and labels:
Assay type in all cases: functional
P388 = test: Tested for inhibitory activity against P-388 leukemia cells; conditions: Mus musculus, read-out: ED50 (the source's name)
Human alphaherpesvirus 1 [1] = test: The compound was tested in vitro for anti viral activity against Herpes simplex virus type 1 (strain 377)
Human alphaherpesvirus 1 [2] = test: Minimum inhibitory concentration required to inhibit Herpes simplex virus type 1 (strain 377) induced cytopathogenic effects by 50%.
Human alphaherpesvirus 1 [3] = test: The compound was tested in vitro for definite and significant anti viral activity against Herpes simplex virus type 1 (strain 377); value indicates definite and significant antiviral activity

With `Nc1nc(N)c2ncn(C3CC(CO)C(O)C3O)c2n1` (stereo not drawn) as the compound, how does the EC50 (P388) read?
The EC50 was 39 µM.

And the Virus rating (Human alphaherpesvirus 1 [1])?
The Virus rating was 2.7.

And the MIC50 (Human alphaherpesvirus 1 [2])?
The MIC50 was 85 µg/mL (≈ 303 µM).

What does the source list for `Nc1nc(Cl)c2nnn(C3CC(CO)C(O)C3O)c2n1` (stereo not drawn)?
EC50 (P388): 50 µM; Virus rating (Human alphaherpesvirus 1 [1]): 0.6; MIC50 (Human alphaherpesvirus 1 [2]): 100 µg/mL (≈ 333 µM)

For `Nc1nc(Cl)c2ncn(C3CC(CO)C(O)C3O)c2n1` (stereo not drawn), which EC50 (P388) is on record?
Its EC50 is 220 µM.

And the Virus rating (Human alphaherpesvirus 1 [1])?
Its Virus rating is 1.8.

And the MIC50 (Human alphaherpesvirus 1 [2])?
The MIC50 was 100 µg/mL (≈ 334 µM).

For `Nc1nc(N)c2nnn(C3CC(CO)C(O)C3O)c2n1` (stereo not drawn), which Virus rating (Human alphaherpesvirus 1 [3]) is on record?
The Virus rating was 2.

And the EC50 (P388)?
The EC50 was 5.3 µM.

And the MIC50 (Human alphaherpesvirus 1 [2])?
The MIC50 was 66.9 µg/mL (≈ 238 µM).

`COc1nc(N)nc2c1nnn2C1CC(CO)C(O)C1O` (stereo not drawn) was tested. Which EC50 (P388) did it give?
The EC50 was 63 µM.
